Experimental data: US10344000B2, “Substituted bicyclic pyrazole compounds as RORgammaT inhibitors and uses thereof” (Merck Sharp & Dohme Corp., priority 2015, dated 2019)
pIC50: −log10 of the molar value. Like-named read-outs stand apart in the source and are kept apart here.

Molecular target: human RORgammaT-Ligand Binding Domain (LBD) (Homo sapiens (Human), UniProt P51449)
Test: RORγ-Ligand Binding Domain TR-FRET Assay (SRC1_2 co-activator peptide)
Type: biochemical
Settings: HIS-tagged RORγ-LBD 3 nM, biotinylated SRC1 LXXLL peptide 100 nM, incubated overnight at 4° C.; for IC50: Fret IC50 (nM); for pIC50: read-out: Fret IC50

Sequence of human RORgammaT-Ligand Binding Domain (LBD) (P51449 269-508): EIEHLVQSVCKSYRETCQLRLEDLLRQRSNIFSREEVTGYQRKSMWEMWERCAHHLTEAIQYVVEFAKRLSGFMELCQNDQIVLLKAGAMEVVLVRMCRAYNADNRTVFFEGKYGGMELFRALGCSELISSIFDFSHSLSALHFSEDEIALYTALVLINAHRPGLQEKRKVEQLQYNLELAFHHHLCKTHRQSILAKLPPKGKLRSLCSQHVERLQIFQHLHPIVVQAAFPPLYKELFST

| Structure (SMILES) | pIC50 | IC50 [nM] |
| --- | --- | --- |
| N#CC1(c2cccc(Cl)c2C(=O)n2nc(C3=CCC(C(=O)O)CC3)c3c2COCC3)CCC1 (single isomer, unassigned) [Example 2C-A, (1R or S)-4-(1-{[2-chloro-6-(1-cyanocyclobutyl)phenyl]carbonyl}-1,4,5,7-tetrahydropyrano[3,4-c]pyrazol-3-yl)cyclohex-3-ene-1-carboxylic acid] |  | 676 |
| N#CC1(c2cccc(Cl)c2C(=O)n2nc(C3=CCC(C(=O)O)CC3)c3c2COCC3)CCC1 (single isomer, unassigned) [Example 2C-B, (1R or S)-4-(1-{[2-chloro-6-(1-cyanocyclobutyl)phenyl]carbonyl}-1,4,5,7-tetrahydropyrano[3,4-c]pyrazol-3-yl)cyclohex-3-ene-1-carboxylic acid] |  | 1050 |
| O=C(O)C1CC=C(c2nn(C(=O)c3c(Cl)cccc3C3CC3)c3c2CCC(CO)C3)CC1 (single isomer, unassigned) [Example 7A, 4-((R or S)-1-(2-chloro-6-cyclopropylbenzoyl)-6-(hydroxymethyl)-4,5,6,7-tetrahydro-1H-indazol-3-yl)cyclohex-3-ene-1-carboxylic Acid] | 8.05 |  |
| O=C(O)C1CC=C(c2nn(C(=O)c3c(C4CC4)ccc(F)c3Cl)c3c2CCC(CO)C3)CC1 (single isomer, unassigned) [Example 7B, 4-((R or S)-1-(2-chloro-6-cyclopropyl-3-fluorobenzoyl)-6-(hydroxymethyl)-4,5,6,7-tetrahydro-1H-indazol-3-yl)cyclohex-3-ene-1-carboxylic acid] | 7.85 |  |
| O=C(O)C1CC=C(c2nn(C(=O)c3c(Cl)cccc3C3CC3)c3c2CCC(O)C3)CC1 (single isomer, unassigned) [Example 10B, 4-((R or S)-1-(2-chloro-6-cyclopropylbenzoyl)-6-hydroxy-4,5,6,7-tetrahydro-1H-indazol-3-yl)cyclohex-3-ene-1-carboxylic Acid] | 7.49 |  |
| NCC1CCc2c(C3=CCC(C(=O)O)CC3)nn(C(=O)c3c(Cl)cccc3C3CC3)c2C1 (single isomer, unassigned) [Example 14A, 4-((R or S)-6-(aminomethyl)-1-(2-chloro-6-cyclopropylbenzoyl)-4,5,6,7-tetrahydro-1H-indazol-3-yl)cyclohex-3-ene-1-carboxylic Acid] | 5.92 |  |
| N#CC1(c2cccc(Cl)c2C(=O)n2nc(C3=CCC(C(=O)O)CC3)c3c2CCC3)CCC1 (centres unmarked) [Example 1F, 4-(1-{[2-chloro-6-(1-cyanocyclobutyl)phenyl]carbonyl}-1,4,5,6-tetrahydrocyclopenta[c]pyrazol-3-yl)cyclohex-3-ene-1-carboxylic acid] | 5.93 |  |
| O=C(O)C1CCN(c2nn(C(=O)c3c(Cl)cccc3C3CC3)c3c2CCCC3)CC1 [Example 16A, 1-(1-(2-chloro-6-cyclopropylbenzoyl)-4,5,6,7-tetrahydro-1H-indazol-3-yl)piperidine-4-carboxylic Acid] | 6.83 |  |

Now from value to molecule, other results behind:

| pIC50 | Structure (SMILES) | IC50 [nM] |
| --- | --- | --- |
| 6.76 | O=C(O)C1CC=C(c2nn(C(=O)c3c(Cl)cccc3C3CC3)c3c2CCC(CO)C3)CC1 (single isomer, unassigned) [Example 6A, 4-((R or S)-1-(2-chloro-6-cyclopropylbenzoyl)-6-(hydroxymethyl)-4,5,6,7-tetrahydro-1H-indazol-3-yl)cyclohex-3-ene-1-carboxylic Acid] |  |
| 7.82 | O=C(O)C1CC=C(c2nn(C(=O)c3c(Cl)cccc3C3COC3)c3c2CCC(CO)C3)CC1 (single isomer, unassigned) [Example 7C, 4-((R or S)-1-(2-chloro-6-(oxetan-3-yl)benzoyl)-6-(hydroxymethyl)-4,5,6,7-tetrahydro-1H-indazol-3-yl)cyclohex-3-ene-1-carboxylic acid] |  |
| 8.30 | O=C(O)C1CC=C(c2nn(C(=O)c3c(Cl)cccc3C3(C(F)(F)F)CC3)c3c2CCC(CO)C3)CC1 (single isomer, unassigned) [Example 7D, 4-((R or S)-1-(2-chloro-6-(1-(trifluoromethyl)cyclopropyl)benzoyl)-6-(hydroxymethyl)-4,5,6,7-tetrahydro-1H-indazol-3-yl)cyclohex-3-ene-1-carboxylic acid] |  |
| 7.24 | O=C(O)C1CC=C(c2nn(C(=O)c3c(Cl)cccc3C3CC3)c3c2CCC(O)C3)CC1 (single isomer, unassigned) [Example 10A, 4-((R or S)-1-(2-chloro-6-cyclopropylbenzoyl)-6-hydroxy-4,5,6,7-tetrahydro-1H-indazol-3-yl)cyclohex-3-ene-1-carboxylic Acid] |  |
| 7.42 | CC1(c2cccc(Cl)c2C(=O)n2nc(C3=CCC(C(=O)O)CC3)c3c2COCC3)CC1 (centres unmarked) [Example 1D, 4-(1-{[2-chloro-6-(1-methylcyclopropyl)phenyl]carbonyl}-1,4,5,7-tetrahydropyrano[3,4-c]pyrazol-3-yl)cyclohex-3-ene-1-carboxylic acid] |  |
| 7.25 | O=C(O)C1CC=C(c2nn(C(=O)c3c(Cl)cccc3C3CC3)c3c2OCCC3)CC1 (centres unmarked) [Example 15A, 4-(1-(2-chloro-6-cyclopropylbenzoyl)-1,5,6,7-tetrahydropyrano[3,2-c]pyrazol-3-yl)cyclohex-3-ene-1-carboxylic Acid] |  |
